# Measurements taken from article PMC4844702, “Selective inhibition of the kinase DYRK1A by targeting its folding process” (Nature Communications, 2016).
# Experiments:
# Experiment in all cases: Kinase panel (Carna)
# Type in all cases: biochemical
# NuaK2 = molecular target: T1, NuaK2 (Homo sapiens, UniProt Q9H093)
# T1 construct: purchased Carna Biosciences
# IKKε = molecular target: T2, IKKε (Homo sapiens, UniProt Q14164)
# T2 construct: purchased Carna Biosciences
# Excerpt: (§1) Detailed information on the assay conditions is available on the website of Carna Biosciences (http://www.carnabio.com).
# SGK2 = molecular target: T3, SGK2 (Homo sapiens, UniProt Q9HBY8)
# T3 construct: purchased Carna Biosciences
# JAK2 = molecular target: T4, JAK2 (Homo sapiens, UniProt O60674)
# T4 construct: purchased Carna Biosciences
# Excerpt: as §1
# HIPK1 = molecular target: T5, HIPK1 (Homo sapiens, UniProt Q86Z02)
# T5 construct: purchased Carna Biosciences
# Excerpt: as §1
# MAP2K3_Cascade = molecular target: T6, MAP2K3_Cascade (Homo sapiens, UniProt P46734)
# T6 construct: purchased Carna Biosciences
# MAP2K5_Cascade = molecular target: T7, MAP2K5_Cascade (Homo sapiens, UniProt Q13163)
# T7 construct: purchased Carna Biosciences
# PAK1 = molecular target: T8, PAK1 (Homo sapiens, UniProt Q13153)
# T8 construct: purchased Carna Biosciences
# Excerpt: as §1
# PKN1 = molecular target: T9, PKN1 (Homo sapiens, UniProt Q16512)
# T9 construct: purchased Carna Biosciences
# MELK = molecular target: T10, MELK (Homo sapiens, UniProt Q14680)
# T10 construct: purchased Carna Biosciences
# Excerpt: as §1
# CK1γ2 = molecular target: T11, CK1γ2 (Homo sapiens, UniProt P78368)
# T11 construct: purchased Carna Biosciences
# TEC = molecular target: T12, TEC (Homo sapiens, UniProt P42680)
# T12 construct: purchased Carna Biosciences
# Excerpt: as §1
# PKD3 = molecular target: T13, PKD3 (Homo sapiens, UniProt O94806)
# T13 construct: purchased Carna Biosciences
# SIK = molecular target: T14, SIK (Homo sapiens, UniProt P57059)
# T14 construct: purchased Carna Biosciences
# BRSK1 = molecular target: T15, BRSK1 (Homo sapiens, UniProt Q8TDC3)
# T15 construct: purchased Carna Biosciences
# Excerpt: as §1
# EPHA7 = molecular target: T16, EPHA7 (Homo sapiens, UniProt Q15375)
# T16 construct: purchased Carna Biosciences
# EPHA2 = molecular target: T17, EPHA2 (Homo sapiens, UniProt P29317)
# T17 construct: purchased Carna Biosciences
# MGC42105 = molecular target: T18, MGC42105 (Homo sapiens, UniProt Q8IY84)
# T18 construct: purchased Carna Biosciences
# Excerpt: as §1
# PDHK4 = molecular target: T19, PDHK4 (Homo sapiens, UniProt Q16654)
# T19 construct: purchased Carna Biosciences
# Excerpt: as §1
# Erk1 = molecular target: T20, Erk1 (Homo sapiens, UniProt P27361)
# T20 construct: purchased Carna Biosciences
# Excerpt: as §1
# NEK9 = molecular target: T21, NEK9 (Homo sapiens, UniProt Q8TD19)
# T21 construct: purchased Carna Biosciences
# TRKC = molecular target: T22, TRKC (Homo sapiens, UniProt Q16288)
# T22 construct: purchased Carna Biosciences
# Excerpt: as §1
# MRCKα = molecular target: T23, MRCKα (Homo sapiens, UniProt Q5VT25)
# T23 construct: purchased Carna Biosciences
# BLK = molecular target: T24, BLK (Homo sapiens, UniProt P51451)
# T24 construct: purchased Carna Biosciences
# Excerpt: as §1
# TYRO3 = molecular target: T25, TYRO3 (Homo sapiens, UniProt Q06418)
# T25 construct: purchased Carna Biosciences
# Excerpt: as §1
# ACK = molecular target: T26, ACK (Homo sapiens, UniProt Q07912)
# T26 construct: purchased Carna Biosciences
# Excerpt: as §1
# NEK1 = molecular target: T27, NEK1 (Homo sapiens, UniProt Q96PY6)
# T27 construct: purchased Carna Biosciences
# Excerpt: as §1
# EEF2K = molecular target: T28, EEF2K (Homo sapiens, UniProt O00418)
# T28 construct: purchased Carna Biosciences
# Excerpt: as §1
# RSK4 = molecular target: T29, RSK4 (Homo sapiens, UniProt Q9UK32)
# T29 construct: purchased Carna Biosciences
# SRPK1 = molecular target: T30, SRPK1 (Homo sapiens, UniProt Q96SB4)
# T30 construct: purchased Carna Biosciences
# Excerpt: as §1
# PKCγ = molecular target: T31, PKCγ (Homo sapiens, UniProt P05129)
# T31 construct: purchased Carna Biosciences
# Excerpt: as §1
# MAP2K4_Cascade = molecular target: T32, MAP2K4_Cascade (Homo sapiens, UniProt P45985)
# T32 construct: purchased Carna Biosciences
# FGFR4 = molecular target: T33, FGFR4 (Homo sapiens, UniProt P22455)
# T33 construct: purchased Carna Biosciences
# MAP4K2 = molecular target: T34, MAP4K2 (Homo sapiens, UniProt Q12851)
# T34 construct: purchased Carna Biosciences
# Excerpt: as §1
# TRKA = molecular target: T35, TRKA (Homo sapiens, UniProt P04629)
# T35 construct: purchased Carna Biosciences
# Excerpt: as §1
# INSR = molecular target: T36, INSR (Homo sapiens, UniProt P06213)
# T36 construct: purchased Carna Biosciences
# Excerpt: as §1
# RON = molecular target: T37, RON (Homo sapiens, UniProt Q04912)
# T37 construct: purchased Carna Biosciences
# Excerpt: as §1
# TIE2 = molecular target: T38, TIE2 (Homo sapiens, UniProt Q02763)
# T38 construct: purchased Carna Biosciences
# Excerpt: as §1
# BRSK2 = molecular target: T39, BRSK2 (Homo sapiens, UniProt Q8IWQ3)
# T39 construct: purchased Carna Biosciences
# Excerpt: as §1
# p38δ = molecular target: T40, p38δ (Homo sapiens, UniProt O15264)
# T40 construct: purchased Carna Biosciences
# Excerpt: as §1
# FLT4 = molecular target: T41, FLT4 (Homo sapiens, UniProt P35916)
# T41 construct: purchased Carna Biosciences
# Excerpt: as §1
# ALK = molecular target: T42, ALK (Homo sapiens, UniProt Q9UM73)
# T42 construct: purchased Carna Biosciences
# Excerpt: as §1
# DLK_Cascade = molecular target: T43, DLK_Cascade (Homo sapiens, UniProt Q12852)
# T43 construct: purchased Carna Biosciences
# Excerpt: as §1
# DDR2 = molecular target: T44, DDR2 (Homo sapiens, UniProt Q16832)
# T44 construct: purchased Carna Biosciences
# ROCK1 = molecular target: T45, ROCK1 (Homo sapiens, UniProt Q13464)
# T45 construct: purchased Carna Biosciences
# T20 sequence (P27361 whole entry): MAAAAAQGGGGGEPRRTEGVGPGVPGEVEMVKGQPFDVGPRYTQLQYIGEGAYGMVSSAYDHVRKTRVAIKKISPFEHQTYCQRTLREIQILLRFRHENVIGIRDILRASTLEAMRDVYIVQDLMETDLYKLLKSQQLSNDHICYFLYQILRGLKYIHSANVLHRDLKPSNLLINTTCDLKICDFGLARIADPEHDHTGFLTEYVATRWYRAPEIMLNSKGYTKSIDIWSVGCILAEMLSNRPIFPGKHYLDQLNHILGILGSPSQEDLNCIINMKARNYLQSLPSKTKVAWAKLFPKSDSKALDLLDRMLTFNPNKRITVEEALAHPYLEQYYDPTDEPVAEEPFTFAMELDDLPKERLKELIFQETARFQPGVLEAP
# T38 sequence (Q02763 23-1124): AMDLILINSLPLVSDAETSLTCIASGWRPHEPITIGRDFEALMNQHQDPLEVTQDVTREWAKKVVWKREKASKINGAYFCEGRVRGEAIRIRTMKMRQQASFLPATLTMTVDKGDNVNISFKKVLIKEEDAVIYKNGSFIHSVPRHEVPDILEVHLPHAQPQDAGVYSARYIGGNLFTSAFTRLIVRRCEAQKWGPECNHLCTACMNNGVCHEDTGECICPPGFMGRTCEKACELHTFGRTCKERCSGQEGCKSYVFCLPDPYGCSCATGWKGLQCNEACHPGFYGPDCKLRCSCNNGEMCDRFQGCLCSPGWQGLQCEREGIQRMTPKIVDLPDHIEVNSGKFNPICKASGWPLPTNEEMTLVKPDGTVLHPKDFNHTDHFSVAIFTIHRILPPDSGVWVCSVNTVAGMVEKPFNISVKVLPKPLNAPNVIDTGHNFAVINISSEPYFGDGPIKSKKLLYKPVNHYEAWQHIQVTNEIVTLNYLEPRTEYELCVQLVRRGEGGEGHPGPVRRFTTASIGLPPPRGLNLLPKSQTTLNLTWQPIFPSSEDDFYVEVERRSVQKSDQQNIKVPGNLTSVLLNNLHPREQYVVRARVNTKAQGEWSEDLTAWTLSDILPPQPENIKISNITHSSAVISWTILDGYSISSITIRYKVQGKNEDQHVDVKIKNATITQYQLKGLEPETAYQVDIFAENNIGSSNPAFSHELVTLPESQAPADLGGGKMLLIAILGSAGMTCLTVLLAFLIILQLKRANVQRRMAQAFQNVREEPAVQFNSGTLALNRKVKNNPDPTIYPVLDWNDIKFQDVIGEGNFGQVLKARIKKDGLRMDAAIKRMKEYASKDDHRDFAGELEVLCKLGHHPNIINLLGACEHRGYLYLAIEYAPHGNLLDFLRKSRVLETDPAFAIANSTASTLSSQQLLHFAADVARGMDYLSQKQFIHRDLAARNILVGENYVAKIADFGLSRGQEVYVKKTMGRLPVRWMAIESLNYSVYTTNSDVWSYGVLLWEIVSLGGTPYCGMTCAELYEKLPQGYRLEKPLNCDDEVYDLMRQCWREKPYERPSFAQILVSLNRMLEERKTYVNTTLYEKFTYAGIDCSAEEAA
# T3 sequence (Q9HBY8 whole entry): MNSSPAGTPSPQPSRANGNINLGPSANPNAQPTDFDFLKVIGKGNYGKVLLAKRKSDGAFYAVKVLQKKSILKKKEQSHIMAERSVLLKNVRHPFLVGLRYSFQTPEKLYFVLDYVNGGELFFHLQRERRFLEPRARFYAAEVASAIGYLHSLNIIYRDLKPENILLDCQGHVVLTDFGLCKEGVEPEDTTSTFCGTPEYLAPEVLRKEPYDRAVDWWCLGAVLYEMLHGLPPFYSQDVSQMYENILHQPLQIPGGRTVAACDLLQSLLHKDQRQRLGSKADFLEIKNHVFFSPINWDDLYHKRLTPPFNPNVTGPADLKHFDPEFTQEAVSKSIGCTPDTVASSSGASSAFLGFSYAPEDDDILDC
# T21 sequence (Q8TD19 whole entry): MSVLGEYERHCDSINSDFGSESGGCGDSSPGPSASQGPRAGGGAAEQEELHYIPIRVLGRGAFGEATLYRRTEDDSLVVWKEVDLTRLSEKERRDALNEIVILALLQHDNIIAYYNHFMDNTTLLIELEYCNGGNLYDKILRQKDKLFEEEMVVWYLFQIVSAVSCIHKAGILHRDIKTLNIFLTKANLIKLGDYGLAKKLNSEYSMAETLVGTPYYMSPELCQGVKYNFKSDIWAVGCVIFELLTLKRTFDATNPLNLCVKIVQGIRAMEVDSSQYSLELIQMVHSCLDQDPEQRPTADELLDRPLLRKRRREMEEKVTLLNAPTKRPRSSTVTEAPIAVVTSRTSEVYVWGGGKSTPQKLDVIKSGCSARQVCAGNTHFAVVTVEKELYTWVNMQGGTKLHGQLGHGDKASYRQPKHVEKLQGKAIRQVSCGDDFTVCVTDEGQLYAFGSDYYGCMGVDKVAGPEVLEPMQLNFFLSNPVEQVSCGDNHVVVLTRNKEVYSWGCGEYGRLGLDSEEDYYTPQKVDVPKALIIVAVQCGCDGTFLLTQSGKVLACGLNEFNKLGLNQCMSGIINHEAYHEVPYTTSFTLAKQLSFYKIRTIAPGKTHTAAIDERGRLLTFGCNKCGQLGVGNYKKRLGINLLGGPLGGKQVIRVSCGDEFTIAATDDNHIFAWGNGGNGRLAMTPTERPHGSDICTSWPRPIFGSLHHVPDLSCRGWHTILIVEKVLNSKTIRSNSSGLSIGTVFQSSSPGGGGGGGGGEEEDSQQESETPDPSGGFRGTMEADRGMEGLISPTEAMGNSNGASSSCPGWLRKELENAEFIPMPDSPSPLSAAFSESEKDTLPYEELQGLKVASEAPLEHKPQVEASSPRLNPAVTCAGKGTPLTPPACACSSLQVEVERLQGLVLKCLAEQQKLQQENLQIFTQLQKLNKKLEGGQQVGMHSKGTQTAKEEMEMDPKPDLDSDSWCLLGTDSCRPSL
# T18 sequence (Q8IY84 whole entry): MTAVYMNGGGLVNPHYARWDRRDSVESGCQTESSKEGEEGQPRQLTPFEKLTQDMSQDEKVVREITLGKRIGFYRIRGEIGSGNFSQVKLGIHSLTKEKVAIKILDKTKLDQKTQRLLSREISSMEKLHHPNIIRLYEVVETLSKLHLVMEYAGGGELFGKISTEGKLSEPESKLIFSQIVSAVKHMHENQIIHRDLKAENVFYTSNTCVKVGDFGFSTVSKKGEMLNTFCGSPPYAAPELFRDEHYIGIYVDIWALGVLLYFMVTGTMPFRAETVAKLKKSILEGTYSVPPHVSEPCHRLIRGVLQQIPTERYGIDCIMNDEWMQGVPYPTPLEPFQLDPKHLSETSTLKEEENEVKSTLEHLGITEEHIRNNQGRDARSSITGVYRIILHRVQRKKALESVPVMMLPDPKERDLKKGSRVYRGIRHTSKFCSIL
# T7 sequence (Q13163 whole entry): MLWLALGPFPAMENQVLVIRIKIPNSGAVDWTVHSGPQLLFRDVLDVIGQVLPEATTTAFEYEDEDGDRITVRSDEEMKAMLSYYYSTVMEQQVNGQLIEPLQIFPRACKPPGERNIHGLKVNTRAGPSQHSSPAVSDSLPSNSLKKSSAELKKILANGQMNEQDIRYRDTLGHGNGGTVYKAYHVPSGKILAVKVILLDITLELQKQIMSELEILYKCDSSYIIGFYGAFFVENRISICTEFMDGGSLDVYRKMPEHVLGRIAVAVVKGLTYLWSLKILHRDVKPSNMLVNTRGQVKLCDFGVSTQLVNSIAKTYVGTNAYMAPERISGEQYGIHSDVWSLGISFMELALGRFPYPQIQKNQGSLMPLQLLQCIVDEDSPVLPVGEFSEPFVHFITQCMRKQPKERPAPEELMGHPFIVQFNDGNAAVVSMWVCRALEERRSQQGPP
# T43 sequence (Q12852 whole entry): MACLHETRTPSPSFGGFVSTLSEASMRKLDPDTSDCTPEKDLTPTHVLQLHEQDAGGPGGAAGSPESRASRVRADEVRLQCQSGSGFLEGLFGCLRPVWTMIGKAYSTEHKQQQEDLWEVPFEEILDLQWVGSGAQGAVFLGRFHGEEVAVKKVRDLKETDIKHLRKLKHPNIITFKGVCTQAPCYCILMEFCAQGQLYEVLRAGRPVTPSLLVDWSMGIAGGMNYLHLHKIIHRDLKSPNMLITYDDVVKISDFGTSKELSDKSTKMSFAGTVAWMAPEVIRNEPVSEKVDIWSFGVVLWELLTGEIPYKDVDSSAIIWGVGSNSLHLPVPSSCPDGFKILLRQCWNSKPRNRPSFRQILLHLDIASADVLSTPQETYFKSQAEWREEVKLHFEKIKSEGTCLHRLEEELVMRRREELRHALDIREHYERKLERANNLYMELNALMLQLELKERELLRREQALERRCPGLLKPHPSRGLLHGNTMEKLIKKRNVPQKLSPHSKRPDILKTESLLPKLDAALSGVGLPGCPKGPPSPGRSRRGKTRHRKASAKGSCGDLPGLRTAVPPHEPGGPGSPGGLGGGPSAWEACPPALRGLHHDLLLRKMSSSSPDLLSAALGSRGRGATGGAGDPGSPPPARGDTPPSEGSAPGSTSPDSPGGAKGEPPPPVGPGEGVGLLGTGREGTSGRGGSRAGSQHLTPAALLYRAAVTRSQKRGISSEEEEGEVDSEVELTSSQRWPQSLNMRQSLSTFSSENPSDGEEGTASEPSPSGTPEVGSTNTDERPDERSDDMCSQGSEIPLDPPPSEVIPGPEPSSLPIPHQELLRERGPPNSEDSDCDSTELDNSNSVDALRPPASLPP
# T40 sequence (O15264 whole entry): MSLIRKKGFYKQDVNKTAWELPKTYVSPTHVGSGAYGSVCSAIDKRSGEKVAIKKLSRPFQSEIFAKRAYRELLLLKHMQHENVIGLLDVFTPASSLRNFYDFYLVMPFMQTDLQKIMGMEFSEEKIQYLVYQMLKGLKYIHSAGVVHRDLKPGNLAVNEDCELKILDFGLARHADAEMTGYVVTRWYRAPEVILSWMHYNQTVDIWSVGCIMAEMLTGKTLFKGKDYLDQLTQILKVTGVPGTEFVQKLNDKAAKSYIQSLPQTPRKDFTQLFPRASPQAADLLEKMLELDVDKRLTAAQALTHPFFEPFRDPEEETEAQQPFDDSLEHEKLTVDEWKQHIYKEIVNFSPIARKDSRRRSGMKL
compound,measurement,setting,value
COc1ccc(/C=C2\SC(=S)NC2=O)cc1C#C[Si](C)(C)C [FINDY],inhibition at 10 µM,NuaK2,-9.3%
same,inhibition at 10 µM,IKKε,-2%
same,inhibition at 10 µM,SGK2,30.9%
same,inhibition at 10 µM,JAK2,7.1%
same,inhibition at 10 µM,HIPK1,11.8%
same,inhibition at 10 µM,MAP2K3_Cascade,26%
same,inhibition at 10 µM,MAP2K5_Cascade,-0.1%
same,inhibition at 10 µM,PAK1,-0.2%
same,inhibition at 10 µM,PKN1,-0.9%
same,inhibition at 10 µM,MELK,20.6%
same,inhibition at 10 µM,CK1γ2,27.7%
same,inhibition at 10 µM,TEC,32%
same,inhibition at 10 µM,PKD3,-13.4%
same,inhibition at 10 µM,SIK,15%
same,inhibition at 10 µM,BRSK1,24.3%
same,inhibition at 10 µM,EPHA7,18.7%
same,inhibition at 10 µM,EPHA2,16.3%
same,inhibition at 10 µM,MGC42105,12.5%
same,inhibition at 10 µM,PDHK4,14.8%
same,inhibition at 10 µM,Erk1,33.8%
same,inhibition at 10 µM,NEK9,-3.3%
same,inhibition at 10 µM,TRKC,11.8%
same,inhibition at 10 µM,MRCKα,2.7%
same,inhibition at 10 µM,BLK,25.5%
same,inhibition at 10 µM,TYRO3,2.9%
same,inhibition at 10 µM,ACK,-2.2%
same,inhibition at 10 µM,NEK1,37.3%
same,inhibition at 10 µM,EEF2K,-3.7%
same,inhibition at 10 µM,RSK4,29.6%
same,inhibition at 10 µM,SRPK1,7.5%
same,inhibition at 10 µM,PKCγ,4.1%
same,inhibition at 10 µM,MAP2K4_Cascade,6.4%
same,inhibition at 10 µM,FGFR4,6.9%
same,inhibition at 10 µM,MAP4K2,3.3%
same,inhibition at 10 µM,TRKA,-0.6%
same,inhibition at 10 µM,INSR,-1.3%
same,inhibition at 10 µM,RON,9.2%
same,inhibition at 10 µM,TIE2,55.7%
same,inhibition at 10 µM,BRSK2,5.7%
same,inhibition at 10 µM,p38δ,11.9%
same,inhibition at 10 µM,FLT4,9.8%
same,inhibition at 10 µM,ALK,-4.3%
same,inhibition at 10 µM,DLK_Cascade,23.5%
same,inhibition at 10 µM,DDR2,13.5%
same,inhibition at 10 µM,ROCK1,6.8%
